Results published in US4760136A, “Chartreusin derivatives and salts thereof” (Ishihara Sangyo Kaisha, Ltd., priority 1984, dated 1988).

What was measured:
P-388 leukemia cells = assay: Antitumor activity: P-388 leukemia cells inoculated intraperitoneally, drug administered intravenously, BDF1 mice; assay type: in vivo; conditions: Mus musculus, P388, iv, BDF1 mice, P-388 i.p., read-out: T/C (%) of MST; for response vs control in vivo at 10 mg/kg: dose a: 10 mg/kg × 3, i.v. on days 1, 5 and 9; for response vs control in vivo at 20 mg/kg: dose b: 20 mg/kg × 3, i.v. on days 1, 5 and 9; for response vs control in vivo at 50 mg/kg: dose d: 50 mg/kg × 3, i.v. on days 1, 5 and 9; for response vs control in vivo at 40 mg/kg: dose c: 40 mg/kg × 3, i.v. on days 1, 5 and 9; for response vs control in vivo at 80 mg/kg: dose f: 80 mg/kg × 3, i.v. on days 1, 5 and 9
How it was run: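 Drug dosing was intravenous on the first, fifth and ninth days after intraperitoneal inoculation of P-388 leukemia cells (1×10^6 per mouse) into BDF1 mice. Vehicles were physiological saline alone, or saline with small amounts of sodium carboxymethyl cellulose or Tween-80.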

[1] = Acute toxicity, intravenous (once), ddY mice; assay type: in vivo; conditions: mouse, in vivo, iv, formulated per Preparation Example
Excerpt: In Table 7 are shown acute toxicity values (LD50, mg/kg) in ddY mice in the case of intravenously administering (once) each of the compounds of this invention in the form of preparations shown in the Preparation Examples shown in Table 7.

| Compound | response vs control in vivo at 20 mg/kg (P-388 leukemia cells) | LD50 [1] | response vs control in vivo at 40 mg/kg (P-388 leukemia cells) | also measured |
| --- | --- | --- | --- | --- |
| CCC(CN(C)C)C(=O)Oc1c2cccc(OC3OC(C)C4OC(c5ccccc5)OC4C3OC3OC(C)C(O)C(OC)C3O)c2c2oc(=O)c3c(C)ccc4oc(=O)c1c2c43 (centres unmarked) [compound 134] | 175% | ≥ 30 mg/kg |  | response vs control in vivo at 10 mg/kg (P-388 leukemia cells): 192% |
| COC1C(O)C(C)OC(OC2C(Oc3cccc4c(OC(=O)C(Cc5ccccc5)NC(=O)OCc5ccccc5)c5c(=O)oc6ccc(C)c7c(=O)oc(c34)c5c67)OC(C)C3OC(C)(C)OC32)C1O (centres unmarked) [compound 128] |  | ≥ 100 mg/kg |  | response vs control in vivo at 50 mg/kg (P-388 leukemia cells): 146% |
| COC1C(O)C(C)OC(OC2C(Oc3cccc4c(OC(=O)CCS(C)(=O)=O)c5c(=O)oc6ccc(C)c7c(=O)oc(c34)c5c67)OC(C)C3OC(c4ccccc4)OC32)C1O (centres unmarked) [Compound No. 168] | 167% | ≥ 40 mg/kg |  |  |
| COC1C(O)C(C)OC(OC2C(Oc3cccc4c(OC(=O)c5cccc(N(C)C)c5)c5c(=O)oc6ccc(C)c7c(=O)oc(c34)c5c67)OC(C)C3OC(c4cccc(F)c4)OC32)C1O (centres unmarked) [Compound No. 158, 6-O-(m-Dimethylaminobenzoyl)-3',4'-O-(m-Fluorobenzylidene)-Chartreusin] |  | ≥ 80 mg/kg | 174% | response vs control in vivo at 80 mg/kg (P-388 leukemia cells): 205% |
| COC1C(O)C(C)OC(OC2C(Oc3cccc4c(OC(=O)CCNC=O)c5c(=O)oc6ccc(C)c7c(=O)oc(c34)c5c67)OC(C)C3OC(c4ccc(F)cc4)OC32)C1O (centres unmarked) [compound 92] | 146% | ≥ 40 mg/kg | 192% |  |
| COC1C(O)C(C)OC(OC2C(Oc3cccc4c(OC(=O)COC(=O)c5ccccc5)c5c(=O)oc6ccc(C)c7c(=O)oc(c34)c5c67)OC(C)C3OC(c4ccccc4)OC32)C1O (centres unmarked) [Compound No. 167] | 198% | ≥ 40 mg/kg |  |  |
| COC1C(O)C(C)OC(OC2C(Oc3cccc4c(OC(=O)C(C)CNC(=O)CNC(=O)OCc5ccccc5)c5c(=O)oc6ccc(C)c7c(=O)oc(c34)c5c67)OC(C)C3OC(c4ccccc4)OC32)C1O (centres unmarked) [compound 74] | 186% | ≥ 40 mg/kg |  |  |
| COC1C(O)C(C)OC(OC2C(Oc3cccc4c(OC(=O)C(CCSC)NC(=O)OCc5ccccc5)c5c(=O)oc6ccc(C)c7c(=O)oc(c34)c5c67)OC(C)C3OC(C)(C)OC32)C1O (centres unmarked) [Compound No. 63] |  | ≥ 120 mg/kg |  | response vs control in vivo at 50 mg/kg (P-388 leukemia cells): 150%; response vs control in vivo at 100 mg/kg (P-388 leukemia cells; dose g: 100 mg/kg × 3, i.v. on days 1, 5 and 9): 205% |
| COC1C(O)C(C)OC(OC2C(Oc3cccc4c(OC(=O)CN(C)C(=O)C(F)(F)F)c5c(=O)oc6ccc(C)c7c(=O)oc(c34)c5c67)OC(C)C3OC(c4ccccc4)OC32)C1O (centres unmarked) [Compound No. 25] | 212% | ≥ 40 mg/kg |  |  |
| COC1C(O)C(C)OC(OC2C(Oc3cccc4c(OC(=O)C(C)CNC(=O)CN(C)C)c5c(=O)oc6ccc(C)c7c(=O)oc(c34)c5c67)OC(C)C3OC(c4ccccc4)OC32)C1O (centres unmarked) [Compound No. 4] | 184% | ≥ 40 mg/kg | 216% |  |
| COC1C(O)C(C)OC(OC2C(Oc3cccc4c(OC(=O)CNC(=O)CNC(=O)CNC(=O)OCc5ccccc5)c5c(=O)oc6ccc(C)c7c(=O)oc(c34)c5c67)OC(C)C3OC(c4cccc(F)c4)OC32)C1O (centres unmarked) [compound 116] |  | ≥ 30 mg/kg | 130% |  |
| COC1C(O)C(C)OC(OC2C(Oc3cccc4c(OC(=O)C(C)CN)c5c(=O)oc6ccc(C)c7c(=O)oc(c34)c5c67)OC(C)C3OC(c4ccccc4)OC32)C1O (stereo not drawn) [Compound No. 6, 6-O-(β-Amino-Isobutyryl)-3',4'-O-Benzylidene-Chartreusin Phosphate] | 182% | ≥ 40 mg/kg | 242% |  |
| COC1C(O)C(C)OC(OC2C(Oc3cccc4c(OC(=O)C(CC[S+](C)[O-])NC(=O)OCc5ccccc5)c5c(=O)oc6ccc(C)c7c(=O)oc(c34)c5c67)OC(C)C3OC(C)(C)OC32)C1O (centres unmarked) [compound 102] |  | ≥ 100 mg/kg |  | response vs control in vivo at 80 mg/kg (P-388 leukemia cells): 187% |
| COC1C(O)C(C)OC(OC2C(Oc3cccc4c(OC(=O)CCNC=O)c5c(=O)oc6ccc(C)c7c(=O)oc(c34)c5c67)OC(C)C3OC(c4c(F)c(F)c(F)c(F)c4F)OC32)C1O (centres unmarked) [compound 113] |  | ≥ 40 mg/kg | 138% |  |
| CO[C@H]1[C@@H](O)[C@@H](C)O[C@H](O[C@H]2[C@H](Oc3cccc4c(OC(=O)[C@@H](NC(=O)CNC(=O)CN)C(C)C)c5c(=O)oc6ccc(C)c7c(=O)oc(c34)c5c67)O[C@H](C)[C@@H]3OC(c4ccccc4)O[C@@H]32)[C@@H]1O (some centres unmarked) [compound 36, 6-O-(glycyl-glycyl-valyl)-3',4'-O-benzylidene-chartreusin phosphate] | 157% | ≥ 40 mg/kg |  | response vs control in vivo at 10 mg/kg (P-388 leukemia cells): 135% |
| COC1C(O)C(C)OC(OC2C(Oc3cccc4c(OC(=O)CCCCCNC(=O)C(F)(F)F)c5c(=O)oc6ccc(C)c7c(=O)oc(c34)c5c67)OC(C)C3OC(c4ccccc4)OC32)C1O (centres unmarked) [compound 78, 6-O-(N-trifluoroacetyl-6-amino-n-hexanoyl)-3',4'-O-benzylidene-chartreusin] |  | ≥ 100 mg/kg | 146% | response vs control in vivo at 80 mg/kg (P-388 leukemia cells): 176% |
| COC1C(O)C(C)OC(OC2C(Oc3cccc4c(OC(=O)C(NC(=O)OCc5ccccc5)C(C)C)c5c(=O)oc6ccc(C)c7c(=O)oc(c34)c5c67)OC(C)C3OC(c4ccccc4Cl)OC32)C1O (centres unmarked) [compound 105] |  | ≥ 80 mg/kg |  | response vs control in vivo at 80 mg/kg (P-388 leukemia cells): 216% |
| COC1C(O)C(C)OC(OC2C(Oc3cccc4c(OC(=O)COc5ccc(F)cc5)c5c(=O)oc6ccc(C)c7c(=O)oc(c34)c5c67)OC(C)C3OC(C)(C)OC32)C1O (centres unmarked) [compound 225] |  | ≥ 60 mg/kg |  | response vs control in vivo at 60 mg/kg (P-388 leukemia cells; dose e: 60 mg/kg × 3, i.v. on days 1, 5 and 9): 148% |
| COC1C(O)C(C)OC(OC2C(Oc3cccc4c(OC(=O)CCSC)c5c(=O)oc6ccc(C)c7c(=O)oc(c34)c5c67)OC(C)C3OC(c4ccccc4)OC32)C1O (centres unmarked) [Compound No. 152] | 157% | ≥ 40 mg/kg | 210% |  |
| COC1C(O)C(C)OC(OC2C(Oc3cccc4c(OC(=O)CCNC(=O)C(Cl)(Cl)Cl)c5c(=O)oc6ccc(C)c7c(=O)oc(c34)c5c67)OC(C)C3OC(c4ccccc4)OC32)C1O (centres unmarked) [Compound No. 22] | 181% | ≥ 40 mg/kg |  |  |
| COC1C(O)C(C)OC(OC2C(Oc3cccc4c(OC(=O)CCCCCNC(=O)C(F)(F)F)c5c(=O)oc6ccc(C)c7c(=O)oc(c34)c5c67)OC(C)C3OC(CC(C)=O)OC32)C1O (centres unmarked) [compound 130] |  | ≥ 180 mg/kg |  | response vs control in vivo at 160 mg/kg (P-388 leukemia cells; dose i: 160 mg/kg × 3, i.v. on days 1, 5 and 9): 141% |
| COC1C(O)C(C)OC(OC2C(Oc3cccc4c(OC(=O)CC(C)NC(=O)C(F)(F)F)c5c(=O)oc6ccc(C)c7c(=O)oc(c34)c5c67)OC(C)C3OC(c4ccccc4)OC32)C1O (centres unmarked) [Compound No. 39] | 165% | ≥ 40 mg/kg | 214% |  |
| COC1C(O)C(C)OC(OC2C(Oc3cccc4c(OC(=O)CCNC=O)c5c(=O)oc6ccc(C)c7c(=O)oc(c34)c5c67)OC(C)C3OC(c4cccc(Cl)c4)OC32)C1O (centres unmarked) [compound 90] | 162% | ≥ 30 mg/kg |  |  |
| CO[C@H]1[C@@H](O)[C@@H](C)O[C@H](O[C@H]2[C@H](Oc3cccc4c(OC(=O)c5ccc(Br)cc5)c5c(=O)oc6ccc(C)c7c(=O)oc(c34)c5c67)O[C@H](C)[C@@H]3OC(C)(C)O[C@@H]32)[C@@H]1O [Compound No. 179] |  | ≥ 80 mg/kg | 136% | response vs control in vivo at 80 mg/kg (P-388 leukemia cells): 208% |
